Results from patent US11760722B2 (priority 2022, dated 2023).
Where “and” joins values, the source holds several entries; their conditions need not be identical. Identical values can stand only once. Like-named read-outs stand apart in the source and are kept apart here.

Columns and labels:
[1] = test system: human coronavirus (HCoV) 229E; test: microbe, parasite or virus in culture; type: cell-based, human coronavirus 229E
SARS-CoV-2 replicon = test: microbe, parasite or virus in culture; type: cell-based
[2] = MRCS cells, HCoV 229E, 3 days, CellTiter Glo, read-out: 229E CPE EC50
[3] = unidentified human coronavirus, 72 h, MRCS cells, HCoV 229E, 3 days, CellTiter Glo, read-out: 229E CPE EC50
[4] = Severe acute respiratory syndrome coronavirus 2, Huh-7, 24 h; read-out: Replicon EC50

| Compound | EC50 [1, 2] | EC50 [1, 3] | EC50 (SARS-CoV-2 replicon; [4]) | EC50 (SARS-CoV-2 replicon; read-out: Replicon EC50) | EC50 ([1]; unidentified human coronavirus, 72 h, read-out: 229E CPE EC50, MRCS cells, HCoV 229E, 3 days, CellTiter Glo) | EC50 (SARS-CoV-2 replicon; Severe acute respiratory syndrome coronavirus 2, Huh-7, 24 h, read-out: Replicon EC50) |
| --- | --- | --- | --- | --- | --- | --- |
| CC(C)(C)[C@H](NS(=O)(=O)c1ccc2c(c1)CCO2)C(=O)N1C[C@H]2[C@@H]([C@H]1C(=O)N[C@H](C#N)C[C@@H]1CCNC1=O)C2(C)C [Compound 83] | 1060 nM | 838 nM | 44 nM | 72 nM | – | – |
| CC(C)(C)[C@H](NC(=S)NC1CCC1)C(=O)N1C[C@H]2[C@@H]([C@H]1C(=O)N[C@H](C#N)C[C@@H]1CCNC1=O)C2(C)C [Compound 124] | – | 801 nM | 500 nM | – | – | – |
| COc1ccc(S(=O)(=O)N[C@H](C(=O)N2C[C@H]3[C@@H]([C@H]2C(=O)N[C@H](C#N)C[C@@H]2CCNC2=O)C3(C)C)C(C)(C)C)cc1 [Compound 101] | 910 nM | 514 nM | 24 nM | 41 nM | – | – |
| CC(C)(C)[C@H](NS(=O)(=O)c1ccccc1)C(=O)N1C[C@H]2[C@@H]([C@H]1C(=O)N[C@H](C#N)C[C@@H]1CCNC1=O)C2(C)C [Compound 95] | 521 nM | 358 nM | 37 nM | 68 nM | – | – |
| CC(C)(C)[C@H](NC(=O)c1cccc2ccccc12)C(=O)N1C[C@H]2[C@@H]([C@H]1C(=O)N[C@H](C#N)C[C@@H]1CCNC1=O)C2(C)C [Compound 119] | – | 546 nM | 340 nM | – | – | – |
| CC(C)(C)[C@H](NC(=O)c1ccccn1)C(=O)N1C[C@H]2[C@@H]([C@H]1C(=O)N[C@H](C#N)C[C@@H]1CCNC1=O)C2(C)C [Compound 107] | – | 23300 nM | 3770 nM | – | – | – |
| CC(C)(C)[C@H](NC(=O)C(F)(F)Cl)C(=O)N1C[C@H]2[C@@H]([C@H]1C(=O)N[C@H](C#N)C[C@@H]1CCNC1=O)C2(C)C [Compound 141] | – | 68 nM | 4.8 nM | 7 nM | – | – |
| CC(C)(C)OC(=O)N[C@H](C(=O)N1C[C@H]2[C@@H]([C@H]1C(=O)N[C@H](C#N)C[C@@H]1CCNC1=O)C2(C)C)C(C)(C)C [Compound 12] | – | – | – | 119 nM | 849 nM | 106 nM |
| CN(C)C(C)(C)C(=O)N[C@H](C(=O)N1C[C@H]2[C@@H]([C@H]1C(=O)N[C@H](C#N)C[C@@H]1CCNC1=O)C2(C)C)C(C)(C)C [Compound 104] | – | 12700 nM | > 10000 nM | – | – | – |
| CC(C)(C)[C@H](NS(=O)(=O)c1ccns1)C(=O)N1C[C@H]2[C@@H]([C@H]1C(=O)N[C@H](C#N)C[C@@H]1CCNC1=O)C2(C)C [Compound 122] | – | 147 nM | 47 nM | 62 nM | – | – |
| CC(C)=C(Cl)C(=O)N[C@H](C(=O)N1C[C@H]2[C@@H]([C@H]1C(=O)N[C@H](C#N)C[C@@H]1CCNC1=O)C2(C)C)C(C)(C)C [Compound 160] | – | 193 nM | 160 nM | – | – | – |
| CC(C)(C)[C@H](NC(=O)C12CC(C(F)(F)F)(C1)C2)C(=O)N1C[C@H]2[C@@H]([C@H]1C(=O)N[C@H](C#N)C[C@@H]1CCNC1=O)C2(C)C [Compound 81] | – | 6860 nM | 1990 nM | – | – | – |
| CC(C)(C)[C@H](NS(=O)(=O)C[C@@]12CC[C@@H](CC1=O)C2(C)C)C(=O)N1C[C@H]2[C@@H]([C@H]1C(=O)N[C@H](C#N)C[C@@H]1CCNC1=O)C2(C)C [Compound 86] | – | 9630 nM | 4020 nM | – | – | – |
| CC(C)(C)[C@H](NC(=O)C(F)C(F)(F)F)C(=O)N1C[C@H]2[C@@H]([C@H]1C(=O)N[C@H](C#N)C[C@@H]1CCNC1=O)C2(C)C (stereo partly shown) [Compound 159] | – | 134 nM | 30 nM | – | – | – |
| CC(C)(C)[C@H](NC(=O)c1ccc2ccccc2c1)C(=O)N1C[C@H]2[C@@H]([C@H]1C(=O)N[C@H](C#N)C[C@@H]1CCNC1=O)C2(C)C [Compound 106] | – | 4020 nM | 860 nM | – | – | – |
| CC(C)(C)[C@H](NC(=O)c1ccc2c(c1)CCC2)C(=O)N1C[C@H]2[C@@H]([C@H]1C(=O)N[C@H](C#N)C[C@@H]1CCNC1=O)C2(C)C [Compound 120] | – | 4720 nM | 2240 nM | – | – | – |
| COc1ccccc1S(=O)(=O)N[C@H](C(=O)N1C[C@H]2[C@@H]([C@H]1C(=O)N[C@H](C#N)C[C@@H]1CCNC1=O)C2(C)C)C(C)(C)C [Compound 130] | 1230 nM | 1090 nM | 93 nM | 130 nM | – | – |
| CC(C)(C)[C@H](NS(=O)(=O)c1ccc(Cl)s1)C(=O)N1C[C@H]2[C@@H]([C@H]1C(=O)N[C@H](C#N)C[C@@H]1CCNC1=O)C2(C)C [Compound 54] | 127 nM | 106 nM | 54 nM | 58 nM | – | – |
| CC(C)(C)[C@H](NC(=S)NC1CCCC1)C(=O)N1C[C@H]2[C@@H]([C@H]1C(=O)N[C@H](C#N)C[C@@H]1CCNC1=O)C2(C)C [Compound 70] | – | 4990 nM | 1790 nM | – | – | – |
| COC(=O)N[C@H](C(=O)N1C[C@H](N(C)C)C[C@H]1C(=O)N[C@H](C#N)C[C@@H]1CCNC1=O)C(C)(C)C [Compound 129] | – | > 30000 nM | 6870 nM | – | – | – |

| Compound | EC50 [1, 2] | EC50 [1, 3] | EC50 (SARS-CoV-2 replicon; [4]) | EC50 (SARS-CoV-2 replicon; read-out: Replicon EC50) | EC50 ([1]; unidentified human coronavirus, 72 h, read-out: 229E CPE EC50, MRCS cells, HCoV 229E, 3 days, CellTiter Glo) | EC50 (SARS-CoV-2 replicon; Severe acute respiratory syndrome coronavirus 2, Huh-7, 24 h, read-out: Replicon EC50) |
| --- | --- | --- | --- | --- | --- | --- |
| C/C(=C\C(=O)N[C@H](C(=O)N1C[C@H]2[C@@H]([C@H]1C(=O)N[C@H](C#N)C[C@@H]1CCNC1=O)C2(C)C)C(C)(C)C)C(F)(F)F [Compound 140] | – | 619 nM | 350 nM | 410 nM | – | – |
| COC(=O)NS(=O)(=O)N[C@H](C(=O)N1C[C@H]2[C@@H]([C@H]1C(=O)N[C@H](C#N)C[C@@H]1CCNC1=O)C2(C)C)C(C)(C)C [Compound 97] | – | > 30000 nM | > 10000 nM | – | – | – |
| C=C(C(=O)N[C@H](C(=O)N1C[C@H]2[C@@H]([C@H]1C(=O)N[C@H](C#N)C[C@@H]1CCNC1=O)C2(C)C)C(C)(C)C)C(F)(F)F [Compound 92] | – | 17100 nM | 1760 nM | – | – | – |
| CC(C)(C)[C@H](NC(=O)C1(CS(=O)(=O)C(C)(C)C)CCCCC1)C(=O)N1C[C@H]2[C@@H]([C@H]1C(=O)N[C@H](C#N)C[C@@H]1CCNC1=O)C2(C)C [Compound 115] | – | > 30000 nM | 3000 nM | – | – | – |
| Cn1c(C(=O)N[C@H](C(=O)N2C[C@H]3[C@@H]([C@H]2C(=O)N[C@H](C#N)C[C@@H]2CCNC2=O)C3(C)C)C(C)(C)C)cc2ccccc21 [Compound 27] | – | 963 nM | 964 nM | – | – | – |
| CC(C)(C)[C@H](NC(=O)C(F)(Cl)C(F)(F)F)C(=O)N1C[C@H]2[C@@H]([C@H]1C(=O)N[C@H](C#N)C[C@@H]1CCNC1=O)C2(C)C (stereo partly shown) [Compound 75] | 118 nM | 92 nM | 6.9 nM | 13 nM | – | – |
| CC(C)(C)[C@H](NC(=O)[C@H]1CCO1)C(=O)N1C[C@H]2[C@@H]([C@H]1C(=O)N[C@H](C#N)C[C@@H]1CCNC1=O)C2(C)C [Compound 22] | – | 19300 nM | 3000 nM | – | – | – |
| CC(C)(C)[C@H](NC(=S)NC1CC(F)(F)C1)C(=O)N1C[C@H]2[C@@H]([C@H]1C(=O)N[C@H](C#N)C[C@@H]1CCNC1=O)C2(C)C [Compound 123] | – | 700 nM | 790 nM | – | – | – |
| CC(C)(C)[C@H](NC(=S)NC1CC1)C(=O)N1C[C@H]2[C@@H]([C@H]1C(=O)N[C@H](C#N)C[C@@H]1CCNC1=O)C2(C)C [Compound 76] | 7550 nM | 6320 nM | 380 nM | 480 nM | – | – |
| CC(C)(C)[C@H](NC(=O)CC12CC(C1)C2)C(=O)N1C[C@H]2[C@@H]([C@H]1C(=O)N[C@H](C#N)C[C@@H]1CCNC1=O)C2(C)C [Compound 40] | 3260 nM | 3120 nM | 270 nM | 320 nM and 360 nM and 390 nM | – | – |
| CC(C)(C)[C@H](NS(=O)(=O)CC#N)C(=O)N1C[C@H]2[C@@H]([C@H]1C(=O)N[C@H](C#N)C[C@@H]1CCNC1=O)C2(C)C [Compound 132] | 591 nM | 589 nM | 64 nM | 75 nM | – | – |
| CC1(C)[C@@H]2[C@@H](C(=O)N[C@H](C#N)C[C@@H]3CCNC3=O)N(C(=O)[C@@H](NC(=O)C(F)(F)F)c3ccc(F)cc3)C[C@@H]21 [Compound 105] | – | 6180 nM | 650 nM | – | – | – |
| CNC(=S)N[C@@H](CC1CCC1)C(=O)N1C[C@H]2[C@@H]([C@H]1C(=O)N[C@H](C#N)C[C@@H]1CCNC1=O)C2(C)C [Compound 78] | – | 12600 nM | 1860 nM | – | – | – |
| COc1ccc(S(=O)(=O)N(C)[C@H](C(=O)N2C[C@H]3[C@@H]([C@H]2C(=O)N[C@H](C#N)C[C@@H]2CCNC2=O)C3(C)C)C(C)(C)C)cc1 [Compound 137] | – | 4840 nM | – | – | – | – |
| CC(C)(C)[C@H](NS(=O)(=O)c1cccnc1)C(=O)N1C[C@H]2[C@@H]([C@H]1C(=O)N[C@H](C#N)C[C@@H]1CCNC1=O)C2(C)C [Compound 93] | 4380 nM | 3060 nM | – | – | – | – |
| C=C(F)C(=O)N[C@H](C(=O)N1C[C@H]2[C@@H]([C@H]1C(=O)N[C@H](C#N)C[C@@H]1CCNC1=O)C2(C)C)C(C)(C)C [Compound 66] | 1400 nM | 1080 nM | – | – | – | – |
| CNC(=S)N[C@H](C(=O)N1C[C@H]2[C@@H]([C@H]1C(=O)N[C@H](C#N)C[C@@H]1CCNC1=O)C2(C)C)C(C)(C)C [Compound 35] | – | 4960 nM | – | – | – | – |
| CC(C)(C)[C@H](NS(=O)(=O)N1CCOCC1)C(=O)N1C[C@H]2[C@@H]([C@H]1C(=O)N[C@H](C#N)C[C@@H]1CCNC1=O)C2(C)C [Compound 49] | 5780 nM | 3880 nM | – | – | – | – |
| CC(C)(C)[C@H](NC(=O)CC#N)C(=O)N1C[C@H]2[C@@H]([C@H]1C(=O)N[C@H](C#N)C[C@@H]1CCNC1=O)C2(C)C [Compound 33] | 18000 nM | 17800 nM | – | – | – | – |
| CC(C)(C)[C@H](NS(=O)(=O)c1sccc1Cl)C(=O)N1C[C@H]2[C@@H]([C@H]1C(=O)N[C@H](C#N)C[C@@H]1CCNC1=O)C2(C)C [Compound 114] | 133 nM | 67 nM | – | – | – | – |
